Laboratory results from PMC10689823, “Discovery of a Drug-like, Natural Product-Inspired DCAF11 Ligand Chemotype” (Nature Communications, 2023).

How the values were obtained:
BRD2 and DCAF11 = target: T1, BRD2 and DCAF11 (Homo sapiens, UniProt P25440+Q8TEB1); assay: Co-immunoprecipitation of FLAG-BRD2 and HA-DCAF11 in Hep G2 cells; format: cell-based; conditions: MG-132 10 μM, 40 min, compound 10 μM
T1 construct: expressed in transfected cells; host or cells: Hep G2
Procedure: Hep G2 cells were seeded in 6-well plates, 24 h later, cells were transiently transfected with HA-DCAF11 (Sino Biological, HG16257-NY) and FLAG-BRD2 for 48 h using the FuGENE® HD transfection reagent (Promega, E2311). […] After determination of the protein concentration, cell lysates were incubated with anti-FLAG magnetic beads (30 μl / sample, Sigma, M8823) at 4 °C for 4 h and washed three times with washing buffer (0.2% NP-40, 25 mM Tris-HCl pH 7.4, 150 mM NaCl). The beads were diluted with PBS, mixed with SDS sample buffer and heated at 95 °C for 10 min, followed by western blot analysis.

BRD2 = BRD2 (Homo sapiens, UniProt P25440); assay: BRD2 levels by Western blot in Hep G2 and MDA-MB-231 cells (incl. RNA interference); format: cell-based; set-up: endogenous in cells; host or cells: Hep G2; MDA-MB-231
Procedure: Cells were washed with PBS and lysed in lysis buffer (50 mM Tris-HCl, pH 7.4, 150 mM NaCl, 1% Triton X-100, 1% sodium deoxycholate, 0.1% SDS) with complete protease inhibitor cocktail (Roche, 11836170001) for 30 min on ice. For Ramos cells, cell pellets were lysed in lysis buffer (50 mM Tris-HCl, pH 8, 150 mM NaCl, 1% NP-40, 0.5% sodium deoxycholate) with complete protease inhibitor cocktail. After centrifugation at 16,000 x g, the supernatant was transferred into a new tube and the protein concentration was determined by DC protein assay (BIO-RAD, 5000116). Proteins were separated by SDS-PAGE and transferred to a PVDF membrane (Thermo scientific, 0.45 μm, 88518). For PDEδ, BRD2, GAPDH, BRD4, Vinculin and BTK, the membranes were blocked with Intercept® Blocking Buffer (LI-COR Biosciences, 927-70001) at room temperature for 1 h. The primary antibodies for these proteins were diluted with Intercept® Blocking Buffer (1:500 for PDEδ, 1:3000 for Vinculin, and 1:1000 for other proteins) and incubated with the membranes overnight at 4 °C. Membranes were washed with PBS + 0.1% Tween 20 (PBS-T) five times and incubated with secondary antibodies conjugated to IRDye® Infrared Fluorescent Dyes (1:5000, LI-COR Biosciences) at room temperature for 1 h with protection from light. After washing the membrane, signals were visualized using the ChemiDoc MP Imaging System (BIO-RAD Laboratories). For detection of LC3B, BRD3, BLK, DCAF11, DDB1 RBX1, FIP200, V5- and FLAG-Tag the membranes were blocked with 5% milk in PBS-T at room temperature for 1 h. The primary antibodies for these proteins were diluted in 5% milk in PBS-T buffer (1:200 for BRD3, 1:1000 for other proteins) and incubated with the membranes overnight at 4 °C. Membranes were washed with PBS-T five times and incubated with HRP secondary antibodies (1:1500) at room temperature for 1 h. After washing the membrane, protein detection was performed using Western blotting detection reagent (Thermo Scientific, 34095) and the ChemiDoc MP Imaging System (BIO-RAD). Relative band intensities were quantified using Image Lab (BIO-RAD).

Hep G2 cells = assay: Cell viability assay (CellTiter-Glo) in Hep G2 cells; format: cell-based; conditions: Homo sapiens, HepG2, 72 h
Procedure: Jurkat cells (3 × 10^3) and Hep G2 cells (3.5 × 10^3) were seeded in 96-well plates in 100 μL culture medium. Cells were treated with compounds dissolved in 50 μl medium at the indicated concentration for 72 h, at the same time, one plate of cells without compounds treatment was used for the cell count at time zero. After adding 40 μl of CellTiter-Glo® reagent (Promega, G7571) to each well for 10 min at room temperature, the luminescence was measured on a Spark® Multimode Microplate Reader (Tecan). The data was analyzed by the GraphPad Prism 9.0.

DCAF11 [1] = target: T2, DCAF11 (Homo sapiens, UniProt Q8TEB1); assay: In-gel fluorescence labelling of purified DCAF11; format: binding; conditions: purified DCAF11 pretreated with compound 2 for 40 min, then 18 for 40 min
Procedure: Purified DCAF11 protein (1 μg, Origene, TP760719) was diluted in PBS buffer that is mixed with compound 2 or BODIPY derivative 18 at the indicated concentration at room temperature. Samples were diluted with 5 × SDS sample loading buffer and heated at 95 °C for 5 min. Proteins were separated using SDS-PAGE and were visualized using the ChemiDoc MP Imaging System (BIO-RAD) at 488 nm and the results were analyzed by Image Lab (BIORAD).

DCAF11 [2] = target: T2, DCAF11; assay: Affinity-based enrichment (biotin-streptavidin pulldown) in Hep G2 cells overexpressing HA-DCAF11; format: binding; set-up: host or cells: Hep G2; conditions: 100 μM compound 2 pretreatment for 1 h
Procedure: Hep G2 cells (1 × 10^6 cells/well) were seeded in 6-well plates and incubated for 24 h. On the next day, the cells were transfected with 1 µg pCMV3-N-HA-DCAF11 plasmid (Sino Biological, HG16257-NY) or 1 µg empty vector (pcDNA3.1(+), Thermo Fisher, V79020) and 2.5 µL FuGENE® HD transfection reagent (Promega, E2311) per well. The cells were incubated for 48 h prior to treatment with 100 μM compound 2 for 1 h. […] The cells were washed with ice-cold PBS, then lysed in lysis buffer (150 mM sodium chloride, 1% NP-40, 50 mM TRIS-HCl, pH 8.0 with complete protease inhibitor cocktail (Roche, 11836170001)) for 30 min on ice. After centrifugation at 16,000 x g, the supernatant was transferred into a new tube and the protein concentration was determined using the DC protein assay (BIO-RAD, 5000116).
The supernatant was discarded and 1 mg of lysate in 500 µL lysis buffer was added to the beads and incubated for 1 h at room temperature with overhead rotation. The beads were washed twice with 500 µL washing buffer (50 mM PIPES (pH 7.4), 50 mM NaCl, 75 mM MgCl2, 5 mM EGTA, 0.1% NP-40, 0.1% Triton X-100, 0.1% Tween20) and twice with PBS for 10 min each at room temperature with overhead rotation. Enriched proteins were eluted by boiling of the beads at 95 °C for 5 min in 20 µL of a supersaturated (25 mM) biotin solution and visualized by Western Blotting as described above.

PDEδ = PDEδ (Homo sapiens, UniProt O43924); assay: PDEδ levels by Western blot in Jurkat cells; format: cell-based; set-up: endogenous in cells; host or cells: Jurkat; conditions: 10 μM, 6 h

SMILES: Cc1sc2c(c1C)C(c1ccc(Cl)cc1)=N[C@@H](CC(=O)NCCOCCOCCOCCOCCNC(=O)COc1c(Br)cc(/C=C3\C(=O)Nc4ccc(Br)cc43)cc1Br)c1nnc(C)n1-2 [Compound 9]
- complex formation between BRD2 and DCAF11 (co-immunoprecipitation) (BRD2 and DCAF11): mediates complex formation between BRD2 and DCAF11
- BRD2 depletion in Hep G2 and MDA-MB-231 cells (BRD2; 4 h): BRD2 depletion was also observed
- BRD2 degradation after siRNA-mediated depletion of RBX1 (BRD2; MDA-MB-231 cells, RBX1 siRNA 30 nM, 48 h, 3 μM compound 9, 4 h): did not induce degradation of BRD2 anymore

SMILES: O=C1Nc2ccc(Br)cc2C1=Cc1cc(Br)c(O)c(Br)c1 [Compound 2]
- GI50 (Hep G2 cells): > 30 µM
- competition of DCAF11 labelling by 18 (DCAF11 [1]): binding is prevented
- competition of DCAF11 enrichment by probe 14 (DCAF11 [2]): reduced the enrichment
- PDEδ protein levels, ligands alone or in combination (PDEδ): did not reduce PDEδ protein levels
